Measured values: US5086050A, “Method of treating inflammatory disorders and psoriasis with salts of azelastine” (priority 1989, dated 1992)
Where a name gives a salt, the structure may show the parent alone. Read-outs that look alike come from different tables or passages of the source.

Tests used:
Type in all cases: physicochemical
[1] = Solubility in water at 20° C. (azelastine and previously known salts)
[2] = Solubility in water at room temperature (salts of the invention)
[3] = Solubility and pH value of the aqueous solution on addition of excess acid
From the text: Addition of excess amounts of acid increases the solubility of the salts. For example a 1-fold, preferably a 0.5-fold, in particular a 0.25-fold excess of acid may be used.
For example, the addition of acids yields the following solubility and following pH value of the aqueous solution: […]

[4] = aqueous solution, excess acid 0 mol
[5] = aqueous solution, excess acid 0.1 mol
[6] = aqueous solution, excess acid 0.25 mol

## CN1CCCC(n2nc(Cc3ccc(Cl)cc3)c3ccccc3c2=O)CC1 (stereo not drawn) [Azelastine, 4-(4-chlorobenzyl)-2-(perhydro-1methylazepine-4-yl)-1-(2H) phthalazinone]
[1]
  Solubility in water: 0.005%

## CN1CCCC(n2nc(Cc3ccc(Cl)cc3)c3ccccc3c2=O)CC1 (stereo not drawn) [methane sulphonate]
[1]
  Solubility in water: ca. 1%

## CN1CCCC(n2nc(Cc3ccc(Cl)cc3)c3ccccc3c2=O)CC1 (stereo not drawn) [maleate]
[1]
  Solubility in water: ca. 1%

## CN1CCCC(n2nc(Cc3ccc(Cl)cc3)c3ccccc3c2=O)CC1 (stereo not drawn) [acetate, azelastine acetate]
[2]
  Solubility in water: more than 10%
[3]; [4]
  pH value: 6.35
[3]; [5]
  pH value: 5.52
[3]; aqueous solution, excess acid 0.1 mol, read-out: Solubility
  Solubility: 30 mg/mL
[3]; [6]
  pH value: 5.1
[3]; aqueous solution, excess acid 0.25 mol, read-out: Solubility
  Solubility: 100 mg/mL
[3]; excess acid 0 mol
  Solubility: 2%

## CN1CCCC(n2nc(Cc3ccc(Cl)cc3)c3ccccc3c2=O)CC1 (stereo not drawn) [lactate, azelastine lactate]
[2]
  Solubility in water: more than 10%
[3]; [4]
  pH value: 5.15
[3]; [5]
  pH value: 4.6
[3]; [6]
  pH value: 4.1
[3]; excess acid 0 mol
  Solubility: 3%
[3]; excess acid 0.1 mol
  Solubility: 5%
[3]; excess acid 0.25 mol
  Solubility: 10%

## CN1CCCC(n2nc(Cc3ccc(Cl)cc3)c3ccccc3c2=O)CC1 (stereo not drawn) [embonate]
[1]
  Solubility in water: 0.0015%

## CN1CCCC(n2nc(Cc3ccc(Cl)cc3)c3ccccc3c2=O)CC1 (stereo not drawn) [phosphate]
[1]
  Solubility in water: ca. 1%

## CN1CCCC(n2nc(Cc3ccc(Cl)cc3)c3ccccc3c2=O)CC1 (stereo not drawn) [malate, azelastine malate]
[2]
  Solubility in water: 3%
[3]; [4]
  pH value: 3.85
[3]; excess acid 0 mol
  Solubility: 5%

## CN1CCCC(n2nc(Cc3ccc(Cl)cc3)c3ccccc3c2=O)CC1 (stereo not drawn) [benzene sulphonate]
[1]
  Solubility in water: under 1%

## CN1CCCC(n2nc(Cc3ccc(Cl)cc3)c3ccccc3c2=O)CC1 (stereo not drawn) [gluconate, azelastine gluconate]
[2]
  Solubility in water: up to 55%
[3]; aqueous solution, excess acid 0.5 mol
  pH value: 4.5
[3]; aqueous solution, excess acid 0.5 mol, read-out: Solubility
  Solubility: 100 mg/mL

## CN1CCCC(n2nc(Cc3ccc(Cl)cc3)c3ccccc3c2=O)CC1 (stereo not drawn) [succinate]
[1]
  Solubility in water: ca. 1%

## CN1CCCC(n2nc(Cc3ccc(Cl)cc3)c3ccccc3c2=O)CC1 (stereo not drawn) [hydrochloride]
[1]
  Solubility in water: 1%

## CN1CCCC(n2nc(Cc3ccc(Cl)cc3)c3ccccc3c2=O)CC1 (stereo not drawn) [fumarate]
[1]
  Solubility in water: under 1%

## CN1CCCC(n2nc(Cc3ccc(Cl)cc3)c3ccccc3c2=O)CC1 (stereo not drawn) [toluene sulphonate]
[1]
  Solubility in water: under 1%
